Assay [1] relates to HA-VSCMs. As to the kind of experiment: HA-VSMC culture on silicone based film membranes, viability staining viewed under CLSM. Particulars: GTN coated FISi membrane vs FISi only film membranes. Format: cell-based, Human. The protocol: HA-VSCMs were cultured on silicone based film membranes supplied by Vascutek. 2 membrane types were tested: uncoated FISi membrane and FISi membrane coated with GTN. Cells were seeded at 5×10^3 seeding density. Cells were cultured for a week and the medium was changed every two days. […] This problem was overcome by sticking the coverslips to the plate with double sided tape before the wells were seeded. Furthermore the cells were washed off during staining or the cells were saved for too long. Some cells were saved by introducing a gentle washing step. On the seventh day, the coverslips were stained and viewed under the CLSM for viability studies.
The following were used as viability stains; CFDA (carboxyfluorescein diacetate) is a vital stain that penetrates cell membranes. Viable cells contain esterase enzymes that remove the diacetate from the molecule thus forming CF which is fluorescent. Once CF if formed, it accumulates in the membrane and viable cells with fluoresce bright green.
Ethidium Bromide: is a vital dye that is only able to pass through the compromised membrane of dead cells and stain them red.
Acridine Orange: is a dye which intercalates with DNA and RNA by intercalation or electrostatic attraction.

In assay [2] the test system is Human Aortic Vascular SMC cell line. As to the kind of experiment: SMC growth inhibition after drug exposure, MTT assay and Neutral Red assay. Format: cell-based. Particulars: high doses; analysed after 72 hours. The protocol: The Human Aortic Vascular SMC cell line was investigated. 96 well plates were seeded and were incubated for at least one day. Medium from the plate was removed and replaced with medium containing varying concentrations of drugs, the drugs being dex, aspirin, GTN or a combination of these drugs. The effects of the drugs were analysed after 72 hours with two viability assays: MTT assay and Neutral Red assay. Absorbance values were read from a microplate reader. MTT is a yellow tetrazolium salt taken up into cells. In viable cells, the salt was reduced in cytosol or mitochondria to form blue formazan salt. The formazan product was very insoluble and was disolved in dimethylsulphoxide before its absorbance was calculated. In non-viable cells, there was no reaction and the cells remained yellow. The Neutral Red assay involved adding neutral red solution, a red dye to cells. In viable cells, the dye stained lysosomes. The cells were incubated with neutral red solution for three hours (to enable dye to penetrate cells), a neutral red destain solution was then added to remove the dye. The intensity of the red colour equated to the number of viable cells.
A general note: Tetrazolium dyes change colour on reduction, which living cells bring about.

The structures appear in SMILES notation.

`O=[N+]([O-])OCC(CO[N+](=O)[O-])O[N+](=O)[O-]` [GTN, Glyceryl Trinitrate]: in assay [1], the “cell growth compared to FISi only film membranes” value was “does not significantly decrease cell growth”. Regarding `CC(=O)Oc1ccccc1C(=O)O` [aspirin, acetylsalicylic acid], in assay [2], the “role in the treatment of vascular proliferative disorder (SMC growth inhibition)” value is recorded as “appear to have a beneficial role”.
